Experimental data: PubChem BioAssay AID1421 (Emory University Molecular Libraries Screening Center, 2008)
Calls of active or inactive are those of the source. How the calls were made is not given here.

target: Prostaglandin E2 receptor EP2 subtype (Homo sapiens) (UniProt P43116); experiment: compounds shifting PGE2 potency at EP2 – cell-based, human EP2, PGE2 EC50 shift, dose response (AID 1421); settings: EP2-expressing cells, PGE2 EC50 shift by compound
Sequence (P43116 whole entry, looked up): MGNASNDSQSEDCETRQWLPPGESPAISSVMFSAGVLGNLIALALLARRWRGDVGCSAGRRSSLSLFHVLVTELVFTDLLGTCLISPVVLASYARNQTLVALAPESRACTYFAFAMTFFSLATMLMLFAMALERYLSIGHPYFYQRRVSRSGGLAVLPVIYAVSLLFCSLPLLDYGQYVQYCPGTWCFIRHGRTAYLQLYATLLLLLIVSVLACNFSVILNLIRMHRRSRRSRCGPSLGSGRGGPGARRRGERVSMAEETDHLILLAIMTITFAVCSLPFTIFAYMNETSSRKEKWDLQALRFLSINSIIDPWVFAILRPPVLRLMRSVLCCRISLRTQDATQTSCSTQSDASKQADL

| Compound | outcome |
| --- | --- |
| CCOC(=O)C(C)Sc1nc(-c2ccccc2)nc2ccccc12 (configuration not stated) | active |
| CCCn1c2ccccc2c2nc3ccccc3nc21 | active |
| CCOC(=O)c1cnc(SC)nc1Sc1ccccc1Cl | active |
| Cc1ccc(C(=O)Nc2ccccc2C(=O)NCc2ccccc2)cc1 | active |

same assay, conditions: EP2-expressing cells, PGE2 EC50 shift by compound; measured here: PGE2 EC50 at 6.7 uM compound

| Compound | PGE2 EC50 with compound |
| --- | --- |
| CCOC(=O)c1ccc2nc(C(F)(F)F)[nH]c(=O)c2c1 | 1.19 nM |
| CCOC(=O)C(C)Sc1nc(-c2ccccc2)nc2ccccc12 (configuration not stated) | 0.92 nM |
| CCOC(=O)CNC(=O)c1ccc2c(c1)OCCO2 | 2.56 nM |
| Cc1onc(-c2ccccc2Cl)c1-c1nc(-c2ccncc2)no1 | 0.83 nM |
| COC(=O)c1sc2nc(-c3ccccc3)c3c(c2c1N)CCCC3 | 0.33 nM |
| CCn1c2ccccc2c2cc(Nc3cc(C)nc4ncnn34)ccc21 | 2.83 nM |
| CC1CCN(c2nc3c(c(=O)[nH]c(=O)n3C)n2CCCc2ccccc2)CC1 | 1.05 nM |
| CCCCCOC(=O)c1[nH]c2c(c1C)C(=O)C(C(=O)OC)C(C)C2 (configuration not stated) | 2.63 nM |
| O=C(O)c1nn(CC(=O)N(C2CCCCC2)C2CCCCC2)c(=O)c2ccccc12 | 1.12 nM |
| CC1=CC(C)(C)N2C(=O)C3(SCC(=O)N3c3ccc(F)cc3)c3cc(C)cc1c32 (configuration not stated) | 1.12 nM |
| C=C1CCC2C(CC2(C)C)C(=C)CC/C1=N/O (configuration not stated) | 1.61 nM |
| CCCn1c2ccccc2c2nc3ccccc3nc21 | 1.21 nM |
| Cc1c(F)cccc1NC(=O)CCCCCC1NC(=O)NC1C (configuration not stated) | 1.84 nM |
| COC(=O)CSc1nc2c(c(C3CC=CCC3)c1C#N)CCC2 (configuration not stated) | 1.26 nM |
| Oc1ccc(/C=N/N2CCN(C3c4ccccc4-c4ccccc43)CC2)c(O)c1 | 2.52 nM |
| CSc1nc2nccc(-c3ccc(-c4ccccc4)cc3)n2n1 | 0.87 nM |
| Cc1cccc(OC(=O)c2sc(Cl)nc2C)c1 | 0.83 nM |
| CCSc1nc2ccccc2n1Cc1ccccc1F | 0.94 nM |
| CC1CCCN(C(=O)CSc2cnc3ccccc3n2)C1 (configuration not stated) | 1.26 nM |
| COc1ccc(C(=O)Nc2ccccc2N2CCCCC2)cc1[N+](=O)[O-] | 1.01 nM |
| COc1ccc(-n2c(COc3cccc4ccccc34)nnc2SCC(=O)NCc2ccco2)cc1 | 1.07 nM |
| Cc1oncc1-c1csc(-c2ccccc2Cl)n1 | 1 nM |

| Compound | PGE2 EC50 with compound |
| --- | --- |
| Cc1cc(Br)c2nc3c(c(C(=O)O)c2c1)CCCCC3 | 2.78 nM |
| CC(C)N(CCNC(=O)c1oc(=O)c2ccccc2c1-c1ccccc1)Cc1ccco1 | 1.6 nM |
| CCCCCCn1c(SCC(C)C)nc2c1c(=O)[nH]c(=O)n2C | 1.08 nM |
| CCCCOc1ccc(-c2nnc(-c3ccco3)o2)cc1 | 1.18 nM |
| COc1ccc(-n2c(COc3cccc4ccccc34)nnc2SCC#N)cc1 | 1.19 nM |
| CCOC(=O)c1cnc(SC)nc1Sc1ccccc1Cl | 1.07 nM |
| N#Cc1sc2nc(N3CCCCC3)c3c(c2c1N)CCCC3 | 1.33 nM |
| O=C(C(c1ccccc1)c1ccccc1)N1CCCc2ccccc21 | 0.71 nM |
| CC(C)c1ccc2c(c1)CCC1C(C)(C(N)=O)CCCC21C (configuration not stated) | 0.9 nM |
| O=C(O)c1cccc(NN=C2c3ccccc3-c3ccccc32)c1 | 0.8 nM |
| O=C(CSc1ncnc2c1oc1ccccc12)Nc1ccccc1C(F)(F)F | 1.17 nM |
| Cc1ccc(C)n1-n1cnc2scc(-c3cccs3)c2c1=O | 0.97 nM |
| Cc1cc(C)c(C)c(Cn2c(CO)nc3ccccc32)c1C | 0.6 nM |
| CC1=C(C(=O)OCc2ccccc2)C(c2ccc(Cl)cc2Cl)NC(=O)N1CCCCCC(=O)O (configuration not stated) | 1.23 nM |
| Cc1cc(C)n(CCOc2ccc(Cl)cc2Cl)n1 | 0.63 nM |
| O=S(=O)(c1ccc(F)c(Cl)c1)N1CCCC1 | 1.02 nM |
| CCCOP(=O)(OCCC)C(Nc1cccc(C(F)(F)F)c1)c1ccc(C)cc1 (configuration not stated) | 1.37 nM |
| COCCn1c(SCC(=O)NCCc2ccccc2)nnc1-c1ccco1 | 1.4 nM |
| Cc1cc2c3c(c1)C1(SCC(=O)N1c1ccc(F)cc1)C(=O)N3C(C)(C)CC2C (configuration not stated) | 2.59 nM |
| O=C(O)[C@@H]1[C@H](C(=O)O)[C@@H](C(=O)O)C[C@H]1C(=O)O | 0.91 nM |
| Cc1ccc(C(=O)Nc2ccccc2C(=O)NCc2ccccc2)cc1 | 1.42 nM |
